Read-outs that look alike come from different tables or passages of the source.

In the test the target is T1, ASGPR (Homo sapiens, UniProt P07306).
T1 construct: purchased Acro Biosystems
T1 sequence (P07306 1-291): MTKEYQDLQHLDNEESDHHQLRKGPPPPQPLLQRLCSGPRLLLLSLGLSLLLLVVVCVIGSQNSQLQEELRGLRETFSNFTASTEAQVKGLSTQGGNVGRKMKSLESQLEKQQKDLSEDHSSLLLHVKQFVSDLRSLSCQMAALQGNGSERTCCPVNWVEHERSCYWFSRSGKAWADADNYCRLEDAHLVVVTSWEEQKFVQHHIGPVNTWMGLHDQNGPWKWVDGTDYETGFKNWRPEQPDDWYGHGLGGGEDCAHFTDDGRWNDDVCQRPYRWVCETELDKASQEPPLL
Briefly: ASGPR binding by fluorescence polarization assay (GalNac-Cy5 probe). The note with it: for IC50: 80 nM ASGPR, 1 nM probe, 2 hr incubation. The protocol: Assay Procedure: ASGPR binding was measured in black 96-well plates using a fluorescence polarization assay. A fluorescent probe consisting of a tri-GalNAc linked to Cy5 (GalNac-Cy5, depicted below) was custom synthesized. Example compounds were resuspended in DMSO and 3-fold serial dilutions were made at 100× final concentrations. Binding reactions were conducted in 100 μl final volume in 20 mM Hepes (pH 7.5) 50 mM NaCl 5 mM CaCl2 0.015% Triton X-100 1% DMSO with 80 nM ASGPR (Acro Biosystems) and 1 nM probe. Fluorescence polarization was measured using λex=620 nm, λem=688 nm on an Envision plate reader (Perkin Elmer) after 2 hr incubation time. Dose responses were conducted in duplicate and normalized to the response with DMSO (high) and 1 μM reference compound 18G (low) on each plate. IC50 values were determined by fitting to 4-parameter curves in GraphPad Prism.
Example monovalent compounds (depicted below) were assessed at 100 μM as compared to a reference compound 18G (e.g., intermediate compound 18G in Example 14) as a positive control, following the assay procedure outlined in Example 68.
A general note: Fluorescence polarisation rises when a labelled molecule tumbles more slowly, as on binding a larger partner.

Setting [1] is: monovalent compounds, read-out: IC50 (MM).
Where [2] appears, read: trivalent compounds, read-out: IC50.
Where [3] appears, read: trivalent compounds, dose response curves.

Broadly, the IC50 is the concentration needed to halve the response being measured. On to `O=C(O)c1cccc(OCc2cn([C@H]3CO[C@H](CO)[C@H](O)[C@@H]3O)nn2)c1` [XB20, 3-((1-((3S,4R,5R,6R)-4,5-dihydroxy-6-(hydroxymethyl)tetrahydro-2H-pyran-3-yl)-1H-1,2,3-triazol-4-yl)methoxy)benzoic acid], for which the IC50 under setting [1] was in the range of 1000 to 50000 nM. Take `NC(CCC(=O)NCCOCCOCCOCc1cn([C@H]2[C@H]3OC[C@](CO)(O3)[C@H](O)[C@@H]2O)nn1)(CCC(=O)NCCOCCOCCOCc1cn([C@H]2[C@H]3OC[C@](CO)(O3)[C@H](O)[C@@H]2O)nn1)CCC(=O)NCCOCCOCCOCc1cn([C@H]2[C@H]3OC[C@](CO)(O3)[C@H](O)[C@@H]2O)nn1` [XB40, 4-amino-4-(1-(1-((1S,2R,3R,4R,5S)-2,3-dihydroxy-1-(hydroxymethyl)-6,8-dioxabicyclo[3.2.1]octan-4-yl)-1H-1,2,3-triazol-4-yl)-12-oxo-2,5,8-trioxa-11-azatetradecan-14-yl)-N1,N7-bis(2-(2-(2-((1-((1S,2R,3R,4R,5S)-2,3-dihydroxy-1-(hydroxymethyl)-6,8-dioxabicyclo[3.2.1]octan-4-yl)-1H-1,2,3-triazol-4-yl)methoxy)ethoxy)ethoxy)ethyl)heptanediamide]: the IC50 under setting [2] is no more than 50 nM. As to `OC[C@H]1OC[C@H](Nc2cc(C(F)(F)F)ccn2)[C@@H](O)[C@H]1O` [XB23], the IC50 under setting [1] was in the range of 1000 to 50000 nM.

Regarding `O=C(O)CCCCCCCCCCC(=O)NC(COCCC(=O)NCCCCNC(=O)c1cccc(OCc2cn([C@H]3CO[C@H](CO)[C@H](O)[C@@H]3O)nn2)c1)(COCCC(=O)NCCCCNC(=O)c1cccc(OCc2cn([C@H]3CO[C@H](CO)[C@H](O)[C@@H]3O)nn2)c1)COCCC(=O)NCCCCNC(=O)c1cccc(OCc2cn([C@H]3CO[C@H](CO)[C@H](O)[C@@H]3O)nn2)c1` [1901 (I-171), 13,13-bis((3-((4-(3-((1-((3S,4R,5R,6R)-4,5-dihydroxy-6-(hydroxymethyl)tetrahydro-2H-pyran-3-yl)-1H-1,2,3-triazol-4-yl)methoxy)benzamido)butyl)amino)-3-oxopropoxy)methyl)-1-(3-((1-((3S,4R,5R,6R)-4,5-dihydroxy-6-(hydroxymethyl)tetrahydro-2H-pyran-3-yl)-1H-1,2,3-triazol-4-yl)methoxy)phenyl)-1,8,15-trioxo-11-oxa-2,7,14-triazahexacosan-26-oic acid], under setting [3], the “ASGPR binding affinity compared to reference compound 18G / other trivalent compounds” value was “comparable affinity as reference compound 18G”. In addition, the IC50 under setting [2] was no more than 50 nM.

As to `NC(CCC(=O)NCCOCCOCCOCc1cn([C@H]2CO[C@H](CO)[C@H](O)[C@@H]2O)nn1)(CCC(=O)NCCOCCOCCOCc1cn([C@H]2CO[C@H](CO)[C@H](O)[C@@H]2O)nn1)CCC(=O)NCCOCCOCCOCc1cn([C@H]2CO[C@H](CO)[C@H](O)[C@@H]2O)nn1` [XB32, 4-amino-4-(1-(1-((3S,4R,5R,6R)-4,5-dihydroxy-6-(hydroxymethyl)tetrahydro-2H-pyran-3-yl)-1H-1,2,3-triazol-4-yl)-12-oxo-2,5,8-trioxa-11-azatetradecan-14-yl)-N1,N7-bis(2-(2-(2-((1-((3S,4R,5R,6R)-4,5-dihydroxy-6-(hydroxymethyl)tetrahydro-2H-pyran-3-yl)-1H-1,2,3-triazol-4-yl)methoxy)ethoxy)ethoxy)ethyl)heptanediamide], the “ASGPR binding affinity compared to reference compound 18G / other trivalent compounds” value under setting [3] is recorded as “comparable affinity as reference compound 18G”. The IC50 under setting [2] was 50 to 100 nM. Take `CC(C)(C)C(=O)N[C@H]1CO[C@H](CO)[C@H](O)[C@@H]1O` [Compound 592]: under setting [1], the IC50 was greater than 50000 nM.

In the case of `C#CC[C@H]1O[C@H](CO)[C@H](O)[C@H](O)[C@H]1NC(C)=O` [Compound 591], the “ASGPR binding affinity among the tested monomers” value (monovalent compounds, dose response curves) is recorded as “highest affinity of the tested monomers”. Also, the 50% inhibitory concentration (IC50) under setting [1] lay in the range of 1000 to 50000 nM. With `C#CCCCO[C@H]1CO[C@H](CO)[C@H](O)[C@@H]1O` [Compound 593], the “binding as a percentage of the activity of reference compound 18G” value (monovalent compounds at 100 μM) was less than 50%. With `O=C(O)CCCCCCCCCCC(=O)NC(COCCC(=O)NCCCCNC(=O)c1ccc(OCc2cn([C@H]3CO[C@H](CO)[C@H](O)[C@@H]3O)nn2)cc1)(COCCC(=O)NCCCCNC(=O)c1ccc(OCc2cn([C@H]3CO[C@H](CO)[C@H](O)[C@@H]3O)nn2)cc1)COCCC(=O)NCCCCNC(=O)c1ccc(OCc2cn([C@H]3CO[C@H](CO)[C@H](O)[C@@H]3O)nn2)cc1` [1902 (I-172), 13,13-bis((3-((4-(4-((1-((3S,4R,5R,6R)-4,5-dihydroxy-6-(hydroxymethyl)tetrahydro-2H-pyran-3-yl)-1H-1,2,3-triazol-4-yl)methoxy)benzamido)butyl)amino)-3-oxopropoxy)methyl)-1-(4-((1-((3S,4R,5R,6R)-4,5-dihydroxy-6-(hydroxymethyl)tetrahydro-2H-pyran-3-yl)-1H-1,2,3-triazol-4-yl)methoxy)phenyl)-1,8,15-trioxo-11-oxa-2,7,14-triazahexacosan-26-oic acid], the “ASGPR binding affinity compared to reference compound 18G / other trivalent compounds” value under setting [3] was “comparable affinity as reference compound 18G”. The IC50 under setting [2] was no more than 50 nM.

As for `CC(=O)N[C@H]1[C@H](OCCCCC(=O)NCCCNC(=O)CCOCC(COCCC(=O)NCCCNC(=O)CCCCO[C@@H]2O[C@H](CO)[C@H](O)[C@H](O)[C@H]2NC(C)=O)(COCCC(=O)NCCCNC(=O)CCCCO[C@@H]2O[C@H](CO)[C@H](O)[C@H](O)[C@H]2NC(C)=O)NC(=O)CCCCCCCCCCC(=O)O)O[C@H](CO)[C@H](O)[C@@H]1O` [Compound I-124acid, reference compound], the “ASGPR binding affinity compared to reference compound 18G / other trivalent compounds” value under setting [3] is “reduced ASGPR binding affinity”. For the same compound, the IC50 under setting [2] is greater than 100 nM.

Take `CC(=O)N[C@H]1[C@H](OCCCCC(=O)NCCCNC(=O)CCOCC(N)(COCCC(=O)NCCCNC(=O)CCCCO[C@@H]2O[C@H](CO)[C@H](O)[C@H](O)[C@H]2NC(C)=O)COCCC(=O)NCCCNC(=O)CCCCO[C@@H]2O[C@H](CO)[C@H](O)[C@H](O)[C@H]2NC(C)=O)O[C@H](CO)[C@H](O)[C@@H]1O` [Compound 18G]: the IC50 by setting is: under setting [1], no more than 1000 nM; under setting [2], no more than 50 nM. `O=C(O)CCCCCCCCCCC(=O)NC(CCC(=O)NCCOCCOCCn1cc(COc2nc(N[C@H]3CO[C@H](CO)[C@H](O)[C@@H]3O)cc(C(F)(F)F)n2)nn1)(CCC(=O)NCCOCCOCCn1cc(COc2nc(N[C@H]3CO[C@H](CO)[C@H](O)[C@@H]3O)cc(C(F)(F)F)n2)nn1)CCC(=O)NCCOCCOCCn1cc(COc2nc(N[C@H]3CO[C@H](CO)[C@H](O)[C@@H]3O)cc(C(F)(F)F)n2)nn1` [Compound 1920]: the IC50 under setting [2] was greater than 100 nM.
